From US9346761B2, “Arginine methyltransferase inhibitors and uses thereof” (Epizyme, Inc., priority 2013, dated 2016)

Tests used:
[1] = test system: mono-methyl arginine in RKO cells; test: RKO methylation assay, In Cell Western for mono-methyl arginine and DNA content; assay type: cell-based; settings: Homo sapiens; In Cell Western, RKO cells, 72 hours, percent activation of mono-methyl arginine signal; read-out: EC30
From the text: RKO adherent cells were purchased from ATCC (American Type Culture Collection), Manassas, Va., USA. DMEM/Glutamax medium, penicillin-streptomycin, heat inactivated fetal bovine serum, 0.05% trypsin and D-PBS were purchased from Life Technologies, Grand Island, N.Y., USA. Odyssey blocking buffer, 800CW goat anti-rabbit IgG (H+L) antibody, and Licor Odyssey infrared scanner were purchased from Licor Biosciences, Lincoln, Nebr., USA. Mono-methyl arginine antibody was purchased from Cell Signaling Technology, Danvers, Mass., USA. Methanol was purchased from VWR, Franklin, Mass., USA. 10% Tween 20 was purchased from KPL, Inc., Gaithersburg, Md., USA. […] was purchased from Biostatus Limited, Leicestershire, UK.
RKO adherent cells were maintained in growth medium (DMEM/Glutamax medium supplemented with 10% v/v heat inactivated fetal bovine serum and 100 units/mL penicillin-streptomycin) and cultured at 37° C. under 5% CO2
Cell Treatment, in Cell Western (ICW) for Detection of Mono-Methyl Arginine and DNA Content. […] Compound (100 nL) from a 96-well source plate was added directly to 384 well cell plate. Plates were incubated at 37° C., 5% CO2 for 72 hours. After three days of incubation, plates were brought to room temperature outside of the incubator for ten minutes and blotted on paper towels to remove cell media. 50 μL of ice cold 100% methanol was added directly to each well and incubated for 30 min at room temperature. After 30 min, plates were transferred to a Biotek EL406 plate washer and washed 2 times with 100 μL per well of wash buffer (1×PBS). Next 60 μL per well of Odyssey blocking buffer (Odyssey Buffer with 0.1% Tween 20 (v/v)) were added to each plate and incubated 1 hour at room temperature. Blocking buffer was removed and 20 μL per well of primary antibody was added (mono-methyl arginine diluted 1:200 in Odyssey buffer with 0.1% Tween 20 (v/v)) and plates were incubated overnight (16 hours) at 4° C. Plates were washed 5 times with 100 μL per well of wash buffer. […] The plates were washed 5 times with 100 μL per well wash buffer then 2 times with 100 μL per well of water. Plates were allowed to dry at room temperature then imaged on the Licor Odyssey machine which measures integrated intensity at 700 nm and 800 nm wavelengths. Both 700 and 800 channels were scanned.
Calculations: First, the ratio for each well was determined by:
Each plate included fourteen control wells of DMSO only treatment (minimum activation) as well as fourteen control wells for maximum activation treated with 20 μM of a reference compound. The average of the ratio values for each control type was calculated and used to determine the percent activation for each test well in the plate. Reference compound was serially diluted three-fold in DMSO for a total of nine test concentrations, beginning at 20 μM. Percent activation was determined and EC30 curves were generated using triplicate wells per concentration of compound.

Full-length human PRMT3 = biological target: T1, Full-length human PRMT3 (Homo sapiens, UniProt O60678); test: PRMT3 biochemical assay (3H-SAM Flashplate, peptide substrate)
T1 construct: GST-tagged PRMT3; made in house; host or cells: E. coli BL21(DE3) Gold (pGEX-KG)
T1 sequence (O60678 with tags, fused parts or gaps): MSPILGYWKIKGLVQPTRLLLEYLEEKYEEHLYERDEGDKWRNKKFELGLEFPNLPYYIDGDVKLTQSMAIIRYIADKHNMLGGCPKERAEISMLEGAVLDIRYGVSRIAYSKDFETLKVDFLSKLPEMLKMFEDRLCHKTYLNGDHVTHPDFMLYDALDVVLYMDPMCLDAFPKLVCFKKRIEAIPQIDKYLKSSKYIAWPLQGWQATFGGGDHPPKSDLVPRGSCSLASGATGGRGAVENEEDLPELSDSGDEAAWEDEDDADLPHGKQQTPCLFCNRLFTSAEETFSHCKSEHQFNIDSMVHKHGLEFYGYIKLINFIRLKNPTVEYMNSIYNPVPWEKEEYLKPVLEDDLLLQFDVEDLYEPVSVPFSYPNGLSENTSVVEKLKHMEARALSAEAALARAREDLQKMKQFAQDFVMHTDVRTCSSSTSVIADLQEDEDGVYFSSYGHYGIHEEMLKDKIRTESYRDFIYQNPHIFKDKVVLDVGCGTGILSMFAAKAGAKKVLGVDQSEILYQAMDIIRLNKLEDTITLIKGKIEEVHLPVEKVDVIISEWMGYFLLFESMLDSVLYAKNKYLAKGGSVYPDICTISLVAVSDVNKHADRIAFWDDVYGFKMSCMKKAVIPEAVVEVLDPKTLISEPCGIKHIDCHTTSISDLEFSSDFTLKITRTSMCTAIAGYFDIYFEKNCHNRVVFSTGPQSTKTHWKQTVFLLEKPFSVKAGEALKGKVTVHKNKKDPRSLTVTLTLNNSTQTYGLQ
From the text: (§1) General Materials. S-adenosylmethionine (SAM), S-adenosylhomocysteine (SAH), bicine, Tween20, dimethylsulfoxide (DMSO), bovine skin gelatin (BSG),), isopropyl-β-D-thiogalactopyranoside (IPTG), and Tris(2-carboxyethyl)phosphine hydrochloride solution (TCEP) were purchased from Sigma-Aldrich at the highest level of purity possible. ^3H-SAM was purchase from American Radiolabeled Chemicals with a specific activity of 80 Ci/mmol. 384-well streptavidin Flashplates were purchased from PerkinElmer.
Substrates. Peptide containing the classic RMT substrate motif was synthesized with an N-terminal linker-affinity tag motif and a C-terminal amide cap by 21st Century Biochemicals. The peptide was purified by high-performance liquid chromatography (HPLC) to greater than 95% purity and confirmed by liquid chromatography mass spectrometry (LC-MS). The sequence was Biot-Ahx-[…]-amide (SEQ ID NO.:11).
Molecular Biology: : Full-length human PRMT3 (NM_005788.3) isoform 1 transcript clone was amplified from an HEK 293 cDNA library and subcloned into pGEX-KG (GE Life Sciences). The resulting construct encodes an N-terminal GST tag and a thrombin cleavage sequence ([…] […] […] […]) (SEQ ID NO.:12) fused directly to Cys 2 of PRMT3.
Protein Expression. E. coli (BL21(DE3) Gold, Stratagene) made competent by the CaCl2 method were transformed with the PRMT3 construct and ampicillin selection. Protein over-expression was accomplished by growing the PRMT3 expressing E. coli clone and inducing expression with 0.3 mM IPTG at 16° C. The culture was grown for 12 hours, harvested by centrifugation, and stored at −80° C. for purification.
Protein Purification. […] GST-tagged PRMT3 eluted with 25-400 mM phosphate in buffer C. Protein was concentrated and buffer was exchanged to 20 mM Tris, 150 mM NaCl, 5% glycerol, 5 mM β-mercaptoethanol, pH7.8 by ultrafiltration. The purity of recovered protein was 70%.
(§2) General Procedure for PRMT3 Enzyme Assays on Peptide Substrates. The assays were all performed in a buffer consisting of 20 mM Bicine (pH=7.6), 1 mM TCEP, 0.005% BSG, and 0.002% Tween 20, prepared on the day of use. Compounds in 100% DMSO (1 ul) were spotted into a polypropylene 384-well V-bottom plates (Greiner) using a Platemate Plus outfitted with a 384-channel head (Thermo Scientific). DMSO (1 ul) was added to Columns 11, 12, 23, 24, rows A-H for the maximum signal control and 1 ul of SAH, a known product and inhibitor of PRMT3, was added to columns 11, 12, 23, 24, rows I-P for the minimum signal control. A cocktail (40 ul) containing the PRMT3 enzyme was added by Multidrop Combi (Thermo-Fisher). The compounds were allowed to incubate with PRMT3 for 30 min at room temperature, then a cocktail (10 ul) containing SAM and peptide was added to initiate the reaction (final volume=51 ul). The final concentrations of the components were as follows: PRMT3 was 0.5 nM, ^3H-SAM was 100 nM, non-radiolabeled SAM was 1.8 uM, peptide was 330 nM, SAH in the minimum signal control wells was 1 mM, and the DMSO concentration was 2%. The assays were stopped by the addition of potassium chloride (10 ul) to a final concentration of 100 mM. 50 ul of the reaction in the 384-well polypropylene plate was then transferred to a 384-well Flashplate and the biotinylated peptides were allowed to bind to the streptavidin surface for at least 1 hour before being washed once with 0.1% Tween20 in a Biotek ELx405 plate washer. The plates were then read in a PerkinElmer TopCount plate reader to measure the quantity of ^3H-labeled peptide bound to the Flashplate surface, measured as disintegrations per minute (dpm) or alternatively, referred to as counts per minute (cpm).
(§3) Where dpm=disintegrations per minute, cmpd=signal in assay well, and min and max are the respective minimum and maximum signal controls.
Where top and bottom are the normally allowed to float, but may be fixed at 100 or 0 respectively in a 3-parameter fit. […]

Full-length human PRMT6 = biological target: T2, Full-length human PRMT6 (Homo sapiens, UniProt Q96LA8); test: PRMT6 biochemical assay (3H-SAM Flashplate, peptide substrate)
T2 construct: Flag-PRMT6-His was eluted with 200 ug/ml FLAG peptide in the same buffer; made in house; host or cells: HEK 293F cells (BacMam virus, pFastBacMam)
T2 sequence (Q96LA8 with tags, fused parts or gaps): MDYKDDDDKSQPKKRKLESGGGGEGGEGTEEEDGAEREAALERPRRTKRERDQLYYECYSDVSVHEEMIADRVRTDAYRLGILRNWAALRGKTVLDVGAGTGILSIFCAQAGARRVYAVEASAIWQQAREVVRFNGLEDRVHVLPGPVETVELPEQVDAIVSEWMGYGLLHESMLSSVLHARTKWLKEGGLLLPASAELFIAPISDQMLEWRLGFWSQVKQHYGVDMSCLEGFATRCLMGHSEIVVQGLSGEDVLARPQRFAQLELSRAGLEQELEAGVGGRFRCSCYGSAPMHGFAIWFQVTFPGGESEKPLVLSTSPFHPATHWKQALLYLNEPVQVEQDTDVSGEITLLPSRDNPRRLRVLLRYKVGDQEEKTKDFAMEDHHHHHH
From the text: as §1, with “(BSG), sodium butyrate” for “(BSG),), isopropyl-β-D-thiogalactopyranoside (IPTG),”
Substrates. Peptide representative of human histone H4 residues 36-50 was synthesized with an N-terminal linker-affinity tag motif and a C-terminal amide cap by 21st Century Biochemicals.
The amplified gene was subcloned into pFastBacMam (Viva Biotech).
Protein Expression. Recombinant baculovirus were generated according to Bac-to-Bac kit instructions (Life Technologies). […] Infections were carried out at 37° C. for 48 hours, harvested by centrifugation, and stored at −80° C. for purification.
Protein Purification. […] Column was washed with 20 mM imidazole in the same buffer and Flag-PRMT6-His was eluted with 150 mM imidazole. Pooled fractions were dialysed against buffer Ni-A and further purified by anti-flag M2 affinity chromatography. Flag-PRMT6-His was eluted with 200 ug/ml FLAG peptide in the same buffer. Pooled fractions were dialysed in 20 mM Tris, 150 mM NaCl, 10% glycerol and 5 mM β-mercaptoethanol, pH 7.8.
as §2, with “PRMT6” for “PRMT3”, “Compounds in 100% DMSO (1 ul) were spotted into a polypropylene 384-well V-bottom plates (Greiner) using a Platemate Plus outfitted with a 384-channel head (Thermo Scientific).” left out, “PRMT6,” for “PRMT3,”, “The final concentrations of the components were as follows: PRMT3 was 0.5 nM, ^3H-SAM was 100 nM, non-radiolabeled SAM was 1.8 uM, peptide was 330 nM, SAH in the minimum signal control wells was 1 mM, and the DMSO concentration was 2%.” left out, “non-radiolabeled SAM” for “potassium chloride”, “400 uM, which dilutes the ^3H-SAM to a level where its incorporation into the peptide substrate is no longer detectable.” for “100 mM.”
as §3
(§4) Where top and bottom are the normally allowed to float, but may be fixed at 100 or 0 respectively in a 3-parameter fit. The Hill Coefficient normally allowed to float but may also be fixed at 1 in a 3-parameter fit. Y is the % inhibition and X is the compound concentration.

[2] = biological target: T3, Full-length human PRMT1 isoform 1 (Homo sapiens, UniProt Q99873); test: PRMT1 biochemical assay (3H-SAM Flashplate, peptide substrate)
T3 construct: GST-tagged PRMT1; made in house; host or cells: High Five insect cells (baculovirus, pFastBacI)
T3 sequence (Q99873 with tags, fused parts or gaps): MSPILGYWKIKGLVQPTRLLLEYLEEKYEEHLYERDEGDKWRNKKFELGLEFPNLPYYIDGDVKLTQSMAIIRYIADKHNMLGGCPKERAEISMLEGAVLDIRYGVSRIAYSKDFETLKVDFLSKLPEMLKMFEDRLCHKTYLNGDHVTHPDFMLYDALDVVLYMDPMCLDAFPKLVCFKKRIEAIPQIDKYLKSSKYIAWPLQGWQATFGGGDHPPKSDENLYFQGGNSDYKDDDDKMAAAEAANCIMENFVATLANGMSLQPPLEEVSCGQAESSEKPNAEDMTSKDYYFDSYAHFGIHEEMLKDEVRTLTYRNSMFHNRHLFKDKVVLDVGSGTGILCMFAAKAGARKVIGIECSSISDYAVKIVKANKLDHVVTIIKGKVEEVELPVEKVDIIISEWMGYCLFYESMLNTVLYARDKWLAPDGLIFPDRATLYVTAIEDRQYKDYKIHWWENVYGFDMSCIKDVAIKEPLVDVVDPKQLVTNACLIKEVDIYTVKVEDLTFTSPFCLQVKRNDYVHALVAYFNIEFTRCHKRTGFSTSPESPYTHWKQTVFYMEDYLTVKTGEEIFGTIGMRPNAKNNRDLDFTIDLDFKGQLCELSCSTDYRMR
From the text: as §1, with “(BSG),” for “(BSG),), isopropyl-β-D-thiogalactopyranoside (IPTG),”
Protein Expression. Recombinant baculovirus were generated according to Bac-to-Bac kit instructions (Life Technologies). […] Infections were carried out at 27° C. for 48 hours, harvested by centrifugation, and stored at −80° C. for purification.
Protein Purification. […] GST-tagged PRMT1 was eluted with 50 mM Tris, 2 mM glutathione, pH 7.8, dialysed in buffer A and concentrated to 1 mg/mL.
as §2, with “PRMT1” for “PRMT3”, “Compounds in 100% DMSO (1 ul) were spotted into a polypropylene 384-well V-bottom plates (Greiner) using a Platemate Plus outfitted with a 384-channel head (Thermo Scientific).” left out, “PRMT1,” for “PRMT3,”, “The final concentrations of the components were as follows: PRMT3 was 0.5 nM, ^3H-SAM was 100 nM, non-radiolabeled SAM was 1.8 uM, peptide was 330 nM, SAH in the minimum signal control wells was 1 mM, and the DMSO concentration was 2%.” left out, “non-radiolabeled SAM” for “potassium chloride”, “300 uM, which dilutes the ^3H-SAM to a level where its incorporation into the peptide substrate is no longer detectable.” for “100 mM.”
as §3, §4

| Structure (SMILES) | EC30 [1] [nM] | IC50 (Full-length human PRMT3) [nM] | IC50 (Full-length human PRMT6) [nM] | IC50 [2] [nM] |
| --- | --- | --- | --- | --- |
| CC(C)Cc1ccc(-c2n[nH]cc2CN(C)CCN)cc1 [Compound 165] | < 3000 | 1010 to 3000 | – | – |
| CNCCN(C)Cc1c[nH]nc1-c1cc(CC(C)C)cc(CC(C)C)c1 [Compound 281] | 3010 to 12000 | – | 101 to 1000 | < 100 |
| CNCCN(C)Cc1c[nH]nc1-c1cc(Cl)c(OCC2CC2)c(Cl)c1 [Compound 282] | < 3000 | – | < 100 | < 100 |
